Here are results for seven compounds from patent US9771332B2, “2-thiopyrimidinones” (Pfizer Inc., priority 2015, dated 2017).

For series [1], the target named is T1, MPO (Homo sapiens, UniProt P05164).
T1 construct: endogenous in cells; host or cells: human whole blood leukocytes, LPS-stimulated
Briefly: Human Whole Blood Assay for Irreversible Inhibition of MPO. The settings on record: LPS-stimulated human whole blood, 4 hour incubation; irreversible inhibition of active MPO. It counts as cell-based. The method, then: To measure the inhibition of MPO activity in a biological system in the present invention, bioassays were performed with human whole blood that was collected from medication-free, human volunteers in heparin treated tubes (APP Pharmaceuticals, LLC, cat # NDC#63323-047-10, #4710). Blood was aliquoted and treated with different concentrations of the MPO inhibitor or vehicle control and co-treated with or without bacterial lipopolysaccharide (LPS, InVivogen) to stimulate blood leukocytes to simultaneously generate H2O2 (a required MPO substrate) and the release of MPO. After a 4 hour incubation at room temperature the plasma fraction was collected following a 2000×g centrifugation at 4° C.
The plasma fraction was divided in two for analysis of total MPO and active MPO. The total MPO content was determined using a standard sandwich ELISA (capture and detection antibodies: Cell Sciences, Cat# HP9048, and Cell Sciences, Cat# HM2164, clone 266-6K1) and calculated relative to a standard curve of purified MPO (myeloperoxidase, Calbiochem, cat#475911) that was prepared by dilution in the autologous donor plasma. The MPO activity is determined by capturing the total MPO from plasma using the capture step as described for the above ELISA method. […] The MPO activity of the captured material was compared to that obtained with a standard curve of purified MPO (myeloperoxidase, Calbiochem, cat#475911) that was prepared in autologous donor plasma. The percent of ‘active’ myeloperoxidase for each sample was calculated from the ratio of the active myeloperoxidase in the Amplex Red assay and the total myeloperoxidase from the ELISA for each sample. A dose response curve of the compound concentration versus MPO activity was then plotted to determine the IC50 value.

Series [2] deals with T2, hERG potassium channel (Homo sapiens, UniProt Q12809).
T2 construct: host or cells: CHO cells (PrecisiON hERG-CHO Recombinant Cell Line)
T2 sequence (Q12809 whole entry): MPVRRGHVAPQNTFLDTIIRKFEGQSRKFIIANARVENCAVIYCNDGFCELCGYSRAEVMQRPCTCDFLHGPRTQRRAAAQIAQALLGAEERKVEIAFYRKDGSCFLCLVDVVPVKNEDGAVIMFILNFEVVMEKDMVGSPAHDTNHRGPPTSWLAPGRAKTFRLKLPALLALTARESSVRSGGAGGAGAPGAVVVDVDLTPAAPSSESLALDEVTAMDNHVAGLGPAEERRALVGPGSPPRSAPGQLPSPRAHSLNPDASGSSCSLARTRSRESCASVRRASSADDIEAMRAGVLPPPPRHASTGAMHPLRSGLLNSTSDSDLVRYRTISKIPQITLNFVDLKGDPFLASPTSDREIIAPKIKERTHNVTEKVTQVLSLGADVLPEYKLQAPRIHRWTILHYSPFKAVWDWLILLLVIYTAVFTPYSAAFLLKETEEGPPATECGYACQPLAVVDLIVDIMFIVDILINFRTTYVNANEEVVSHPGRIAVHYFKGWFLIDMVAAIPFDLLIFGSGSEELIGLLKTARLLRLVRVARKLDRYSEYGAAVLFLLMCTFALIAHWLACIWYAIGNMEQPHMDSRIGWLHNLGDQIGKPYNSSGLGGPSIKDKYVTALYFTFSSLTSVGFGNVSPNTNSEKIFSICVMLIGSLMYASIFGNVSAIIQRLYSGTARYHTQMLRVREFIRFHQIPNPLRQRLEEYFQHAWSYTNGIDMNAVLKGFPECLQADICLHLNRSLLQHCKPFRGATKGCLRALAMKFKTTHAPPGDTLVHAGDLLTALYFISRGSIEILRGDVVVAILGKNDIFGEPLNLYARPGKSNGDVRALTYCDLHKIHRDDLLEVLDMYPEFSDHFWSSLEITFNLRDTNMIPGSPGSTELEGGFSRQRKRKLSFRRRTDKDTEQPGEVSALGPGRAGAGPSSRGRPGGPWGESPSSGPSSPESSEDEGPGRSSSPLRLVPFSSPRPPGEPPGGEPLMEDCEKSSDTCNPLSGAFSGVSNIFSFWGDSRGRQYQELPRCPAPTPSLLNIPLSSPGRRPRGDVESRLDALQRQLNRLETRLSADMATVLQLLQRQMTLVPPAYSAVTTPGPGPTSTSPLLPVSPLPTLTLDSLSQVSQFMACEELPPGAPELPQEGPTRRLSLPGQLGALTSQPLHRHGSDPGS
Briefly: hERG Assay (Qpatch HT automated patch clamp, hERG-transfected CHO cells). It counts as cell-based. The settings on record: for Therapeutic ratio hERG IC50/MPO IC50: hERG IC50 divided by MPO IC50 in human whole blood; for inhibition at 5 min, 100 µM: at 100 uM; for inhibition at 5 min, 300 µM: at 300 uM. The method, then:
All testing was carried out in CHO cells transfected with the hERG gene purchased from Millipore (PrecisiON hERG-CHO Recombinant Cell Line CYL3038). The cell line was grown in DMEM/F-12, GlutaMAX™ with 10% fetal bovine serum, 1% Penicillin-Streptomycin, 1% Geneticin and 1% of 1M HEPES buffer solution, and maintained at approximately 37° C. in a humidified atmosphere containing 5% carbon dioxide. The cells were passaged every 3-5 days based on confluency. On the day of the experiment, 50%-80% confluent cells were harvested from a 175 cm^2 culture flask using Detachin™. After 10 minutes of exposure to Detachin™ at 37° C., the cells were centrifuged for 1 minute at 1000 RPM. The supernatant was removed and the cell pellet was reconstituted in 5-8 mL of serum free media with 2.5% of 1M HEPES, placed on the Qstirrer™, and allowed to recover. After a ˜30 minute recovery period, experiments were initiated.
hERG current was elicited and recorded using the automated Qpatch HT™ system (as described in Kutchinsky J, Friis S, Asmild M, et al. Characterization of potassium channel modulators with QPatch automated patch-clamp technology: system characteristics and performance. Assay Drug Dev Technol 2003; 1(5):685-93). The suspended cells in the Qstirrer™ were transferred to 48 individual recording chambers on a Qplate 48™ containing extracellular recording saline composed of (in mM): 138 NaCl, 5.3 KCl, 1.3 CaCl2, 0.5 MgCl2, 5.6 Glucose, 5 HEPES, 0.4 MgSO4, 0.44 KH2PO4, 4.2 NaHCO3, 0.34 Na2HPO4, and adjusted to pH 7.4±0.1 with NaOH. The intracellular recording saline was composed of (in mM): 130 KCl, 1 MgCl2, 10 HEPES, 5 Mg-ATP, and 5 EGTA, and adjusted to pH 7.2±0.1 with KOH. Membrane currents were recorded at room temperature.
hERG current was elicited from a holding potential of −80 mV with a voltage step to +30 mV for 1 second, followed by a ramp back to −80 mV at 0.55 mV/ms. Test pulses were delivered at a frequency of 0.25 Hz. Up to 4 different concentrations were studied on each cell, each exposure lasting 5 minutes or until steady-state effects were observed. In a separate set of experiments, a full concentration-response relationship and an IC50 was determined for a positive control, cisapride, (Jules C. Hancox, Mark J. McPate, Aziza El Harchi, Yi hong Zhang, The hERG potassium channel and hERG screening for drug-induced torsades de pointes, Pharmacology & Therapeutics, Volume 119, Issue 2, August 2008, Pages 118-132).
Using Sophion Qpatch Assay Software, the amplitude of the peak outward hERG current upon repolarizing ramp was measured. Current amplitude was determined by taking the average of the last 5 current peaks under each treatment condition. Percent inhibition was determined by taking the ratio of the current measured at steady state in the presence of test article (ITest article) versus the control current (Icontrol), and expressed as: % inhibition=100−(ITest article/IControl)*100. When possible, a concentration-response curve was plotted and the data were fitted using Qpatch software to determine an IC50.

[3] abbreviates: fit to a concentration-response curve, read-out: hERG IC50 (determined by curve fitting).
[4] abbreviates: extrapolated from single-point % inhibition, read-out: hERG IC50 (extrapolated from % activity shown).

Where a name gives a salt, the structure may show the parent alone. Read-outs that look alike come from different tables or passages of the source.

T1 sequence (P05164 279-745 limits assumed): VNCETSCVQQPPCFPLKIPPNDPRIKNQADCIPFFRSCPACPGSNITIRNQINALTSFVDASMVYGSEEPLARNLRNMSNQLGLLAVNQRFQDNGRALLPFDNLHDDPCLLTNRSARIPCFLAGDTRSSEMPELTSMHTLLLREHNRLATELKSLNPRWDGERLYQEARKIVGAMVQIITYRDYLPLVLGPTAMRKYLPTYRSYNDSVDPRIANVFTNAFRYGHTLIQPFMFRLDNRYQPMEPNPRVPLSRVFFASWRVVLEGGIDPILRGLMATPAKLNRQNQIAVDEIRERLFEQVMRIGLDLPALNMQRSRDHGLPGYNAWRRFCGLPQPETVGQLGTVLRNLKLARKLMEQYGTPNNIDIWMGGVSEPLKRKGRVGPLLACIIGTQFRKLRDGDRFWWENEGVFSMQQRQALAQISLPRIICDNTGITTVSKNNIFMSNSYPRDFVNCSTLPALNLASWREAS
T1 sequence (P05164 165-273 limits assumed): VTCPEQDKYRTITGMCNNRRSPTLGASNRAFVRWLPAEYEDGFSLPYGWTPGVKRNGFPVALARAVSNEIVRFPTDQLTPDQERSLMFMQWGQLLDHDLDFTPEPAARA

`COc1ccc(Cl)cc1-c1cc(=O)[nH]c(=S)n1CCN` [C]: the figures for the IC50 in series [1] and in series [2] (setting [3]) were 0.8 µM and 33 µM, respectively. In series [2], the “Therapeutic ratio hERG IC50/MPO IC50” value is reported as 41. In addition, the inhibition at 5 min, 30 µM in series [2] (human, pH 7.4, at 30 uM) came to 49%. This compound had an inhibition at 5 min, 100 µM in series [2] (human, pH 7.4) of 75%.
Regarding `Cc1ccc(OCCO)c(-c2cc(=O)[nH]c(=S)n2CCN)c1` [Compound A, 1-(2-Aminoethyl)-6-(2-(2-hydroxyethoxy)-5-methylphenyl)-2-thioxo-2,3-dihydropyrimidin-4(1H)-one hydrochloride], the figures for the IC50 in series [1] and in series [2] (setting [4]) were 0.55 µM and 3030 µM, respectively. The “hERG IC50/MPO IC50 safety ratio over compound C” value in series [2] (5515/41) worked out at 135 times. In series [2] (5515/162), the “hERG IC50/MPO IC50 safety ratio over compound D” value is recorded as 34 times. Besides, the “hERG IC50/MPO IC50 safety ratio over compound E” value in series [2] (5515/260) was found to be 21 times. Further, in series [2] (5515/900), the “hERG IC50/MPO IC50 safety ratio over compound F” value was determined as 6.1 times. In series [2] (5515/1500), the “hERG IC50/MPO IC50 safety ratio over compound G” value is given as 3.7 times. The “Therapeutic ratio hERG IC50/MPO IC50” value in series [2] came out at 5515. In series [2] (human, pH 7.4), this compound yielded an inhibition at 5 min, 300 µM of 9%.
Regarding `COc1ccc(C)cc1-c1cc(=O)[nH]c(=S)n1CC(N)=O` [Compound B], the IC50 in series [1] was 2.5 µM.
In the case of `NCCn1c(-c2cc(Cl)ccc2OCCO)cc(=O)[nH]c1=S` [Compound E], the IC50 was 1.3 µM in series [1] and 335 µM in series [2] (setting [4]). For the same compound, the “Therapeutic ratio hERG IC50/MPO IC50” value in series [2] is given as 260. Besides, the inhibition at 5 min, 100 µM in series [2] (human, pH 7.4) worked out at 23%.
On to `COc1ccc(C)cc1-c1cc(=O)[nH]c(=S)n1CCN` [D], for which the results for the half-inhibitory concentration (IC50) in series [1] and in series [2] (setting [3]) were 0.99 µM and 160 µM, respectively. Moreover, the “Therapeutic ratio hERG IC50/MPO IC50” value in series [2] is on record as 162. The inhibition at 5 min, 100 µM in series [2] (human, pH 7.4) stood at 40%. Besides, the inhibition at 5 min, 300 µM in series [2] (human, pH 7.4) stood at 63%.
For the compound `COc1ccc(Cl)cc1-c1cc(=O)[nH]c(=S)n1CC(N)=O` [F, 2-(6-(5-chloro-2-methoxyphenyl)-4-oxo-2-thioxo-3,4-dihydropyrimidin-1(2H)-yl)acetamide], the IC50 in series [2] (setting [4]) was 1700 µM. In series [2] (human, pH 7.4), this compound had an inhibition at 5 min, 300 µM of 15%.
Turning to `COc1ccc(-c2cc(=O)[nH]c(=S)n2CC(=O)NCCN)c(OC)c1` [G, N-(2-aminoethyl)-2-[6-(2,4-dimethoxyphenyl)-4-oxo-2-thioxo-3,4-dihydropyrimidin-1(2H)-yl]acetamide], the IC50 in series [1] was 0.6 µM; in series [2] (setting [4]), 900 µM. Also, in series [2], the “Therapeutic ratio hERG IC50/MPO IC50” value is 1500. Moreover, the inhibition at 5 min, 300 µM in series [2] (human, pH 7.4) worked out at 25%.

As a reminder, the IC50 is the concentration that gives 50% inhibition. One may read the inhibition as the share of the control response that was lost under treatment.
